Common to all, as to test: inhibition of tumour cell growth, NCI panel, 48 h
Assay [1] relates to HL-60(TB) leukemia.
Assay [2] relates to SN12C renal.
Assay [3] has as its system SNB-75 CNS.
Assay [4] deals with OVCAR-3 ovarian.
The subject of assay [5] is SNB-19 CNS.
Assay [6] deals with T-47D breast.
The test system of assay [7] is 786-0 renal.
Assay [8] has as its system HT29 colon.
Assay [9] relates to PC-3 prostate.
Assay [10] relates to KM12 colon.
In assay [11] the test system is NCI-H460 lung.
Assay [12] relates to MDA-MB-435.
Assay [13] relates to NCI-H226 lung.
Assay [14] concerns UACC-62 melanoma.
Assay [15] has as its system OVCAR-4 ovarian.
Assay [16] deals with MCF7 breast.
Assay [17] relates to SK-MEL-5 melanoma.
Assay [18] concerns SR leukemia.
Assay [19] concerns HOP-92 NSCLC.
The subject of assay [20] is SF-539 CNS.

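Compound exposure: 48 hours, 5 concentrations, 96-well plates. TGI: total growth inhibition.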

For `Cc1cccc2c(NCCN(C)C)c3cccc(C(=O)NCCN(C)C)c3nc12`, the TGI in assay [1] worked out at 0.637 µM; in assay [2], 1.69 µM; in [3], 0.953 µM; in [4] it was 5.54 µM; in [5], 11.2 µM; in assay [6] it was 19.7 µM. Moreover, the TGI was found to be 3.38 µM in [7]; 4.16 µM in [8]; 6.73 µM in assay [9]; 1.04 µM in assay [10]; 4.08 µM in [11]; 1.1 µM in assay [12]. The TGI is 5.68 µM in assay [13]; 0.311 µM in assay [14]; above 100 µM in assay [15]; 2.85 µM in assay [16]; 0.962 µM in assay [17]; 0.319 µM in assay [18]. Besides, the results for the TGI in assay [19] and in assay [20] were 1.46 µM and 0.68 µM, respectively.
Consider `Cc1ccc(N=C2OP(=O)(Nc3ccc(C)cc3)Oc3ccccc32)cc1` (stereo not given), for which the TGI in [1], in assay [2], in [3], in assay [4], in assay [5] and in assay [6] was above 100 µM in each case. Besides, the TGI in assay [7], in assay [8], in assay [9], in assay [10], in assay [11] and in [12] was above 100 µM in each case. For the same compound, the TGI in assay [13], in assay [14], in assay [15], in [16], in [17] and in assay [18] was above 100 µM each time. Further, the TGI is 90.5 µM in [19] and above 100 µM in assay [20].
For the compound `O=C(O)/C=C/c1ccc(OS(=O)(=O)O)cc1`, the TGI in assay [1], in assay [2], in assay [3], in [4], in [5] and in [6] was above 100 µM in each case. Besides, the TGI in [7], in assay [8], in assay [9], in assay [10], in [11] and in [12] was above 100 µM each time. For the same compound, the TGI in [13], in assay [14], in assay [15], in [16], in [17] and in assay [18] was above 100 µM in each case. Further, the TGI in [19] and in [20] was above 100 µM in each case.
As to `O=S1(=O)c2ccccc2N2C(c3ccccc3)=NOC2(c2ccccc2)CC1c1ccc(Br)cc1` (stereo not given), the TGI in assay [1], in [2], in [3], in assay [4], in assay [5] and in assay [6] was above 100 µM in each case. Moreover, the TGI in [7], in [8], in assay [9], in assay [10], in [11] and in assay [12] was above 100 µM each time. Also, the TGI in [13], in assay [14], in assay [15], in assay [16], in assay [17] and in assay [18] was above 100 µM throughout. The TGI in [19] and in assay [20] was above 100 µM each time.
As for `O=C1/C(=C/c2ccccc2)CCc2ccc([N+](=O)[O-])cc21`, the TGI is above 100 µM in assay [1]; above 100 µM in assay [2]; above 74.6 µM in assay [3]; above 100 µM in [4]; 91.3 µM in assay [5]; above 100 µM in assay [6]. Further, the TGI was above 80.3 µM in [7]; above 100 µM in assay [8]; above 100 µM in [9]; above 100 µM in [10]; above 100 µM in [11]; above 100 µM in assay [12]. Further, the TGI is above 100 µM in [13]; above 100 µM in assay [14]; above 100 µM in [15]; above 100 µM in assay [16]; above 91.2 µM in assay [17]; above 63.3 µM in [18]. Besides, the TGI in assay [19] and in assay [20] was above 100 µM throughout.
With `COC(=O)[C@@H]1C[C@]2(Br)c3ccccc3N(S(=O)(=O)c3ccccc3)[C@@H]2N1C(=O)OC`, the TGI in assay [1], in assay [2], in [3], in [4], in [5] and in assay [6] was above 100 µM in each case. For the same compound, the TGI in assay [7], in [8], in assay [9], in assay [10], in [11] and in assay [12] was above 100 µM throughout. Further, the TGI in assay [13], in assay [14], in assay [15], in assay [16], in assay [17] and in assay [18] was above 100 µM throughout. Besides, the TGI in assay [19] and in [20] was above 100 µM in each case.
As for `COC(=O)c1sc2c(=O)c(C(=O)OC)c(C(=O)OC)sc2c(=O)c1C(=O)OC`, the TGI in assay [1], in assay [2], in assay [3], in [4], in [5] and in assay [6] was above 100 µM each time. The TGI in [7], in [8], in assay [9], in [10], in assay [11] and in assay [12] was above 100 µM each time. Further, the TGI in assay [13], in [14], in [15], in [16], in assay [17] and in assay [18] was above 100 µM throughout. Also, the TGI in [19] and in assay [20] was above 100 µM in each case.

The values above are taken from PubChem BioAssay (NCI).
